In patent publication US20250248999A1, “BAVDEGALUTAMIDE AND COMBINATIONS THEREOF FOR USE IN TREATING PROSTATE CANCER” (Arvinas Operations, Inc., priority 2022, published 2025):
Read-outs that look alike come from different tables or passages of the source. Values belong to the compound of their own block, whether it stands above or below them.

Columns and labels:
[1] = test system: human VCaP (Vertebral-Cancer of the Prostate) tumor xenografts; test: 3-stage efficacy study in castrated mice bearing VCaP tumor xenografts; settings: for change in body weight: Stage I treatment period, FIG. 16; for Tumor volume, Day 0 / Tumor volume, Day 43 (Stage I) / Tumor volume, Day 92 (Stage III): mean ± SEM; for Tumor volume, Day 92 (Stage III): abiraterone 100 mg/kg or Compound (I-g) 10 mg/kg once daily for 19 days
clinical = settings: human, in vivo
[2] = Phase I dose escalation safety
Source text: A traditional 3+3 dose escalation design was implemented. […] Dose increases were dependent upon toxicities.

CYP3A4 = test: In vitro CYP3A4 induction; settings: in vitro data
[3] = 28-day toxicology study in rats
[4] = test system: patient-derived xenograft (PDX) model TM00298; test: Patient-derived xenograft (PDX) model TM00298; assay type: in vivo, NSG (NOD scid IL2Ry) mice; settings: Compound (I-g) 10 mg/kg/day PO, enzalutamide 20 mg/kg/day PO
Method: The TM00298 PDX was grown in intact (non-castrate) male NSG (NOD scid IL2Ry) mice.

[5] = not given; remark: listed apart in the source
mCRPC tumor = test: RECIST response by CT scan in mCRPC patient; assay type: in vivo, human; settings: Patient 20, 140 mg/day, after 4 cycles
[6] = test system: patient-derived xenograft (PDX) model TM00298; settings: enzalutamide treatment; cited from earlier work
[7] = Stage I, Compound (I-g) 3 mg/kg, abiraterone 100 mg/kg or combination, oral gavage once daily
[8] = Stage III, abiraterone-resistant tumors
[9] = Stage III, abiraterone-resistant tumors, abiraterone 100 mg/kg or Compound (I-g) 10 mg/kg once daily, n = 4

reduction in the average abiraterone AUC exposure (1000 mg abiraterone given with 420 mg Compound (I-g), preliminary): 22%
drug-drug interaction (DDI) (abiraterone with Compound (I-g) vs abiraterone alone): no significant DDI was observed
AUC (clinical; Abiraterone AUC0-tau, mean): 417 ng·h/mL
Cmax (clinical; Abiraterone Cmax, mean): 117 ng/mL
SMILES: C[C@]12CC[C@H](O)CC1=CC[C@@H]1[C@@H]2CC[C@]2(C)C(c3cccnc3)=CC[C@@H]12 [Abiraterone, (3S,8R,9S,10R,13S,14S)-10,13-dimethyl-17-(pyridin-3-yl)-2,3,4,7,8,9,10,11,12,13,14,15-dodecahydro-1H-cyclopenta[a]phenanthren-3-ol, reference compound]
change in body weight [1]: no significant change in body weight was observed
TGI (%) vs vehicle (Stage I) ([1]; Stage I, Compound (I-g) 3 mg/kg, abiraterone 100 mg/kg or combination, oral gavage once daily, 43 days): 60%
Tumor volume, Day 0 [1, 7]: 135 ± 10 mm^3
Tumor volume, Day 43 (Stage I) [1, 7]: 262 ± 39 mm^3
Tumor volume, Day 92 (Stage III) [1, 8]: 467 ± 85 mm^3
Tumor volume, Day 0 [1, 9]: 365 ± 44 mm^3

SMILES: N#Cc1ccc(O[C@H]2CC[C@H](NC(=O)c3ccc(N4CCC(CN5CCN(c6cc7c(cc6F)C(=O)N(C6CCC(=O)NC6=O)C7=O)CC5)CC4)nn3)CC2)cc1Cl (some centres unmarked) [Compound (I-g)]
adverse events at grades 2, 3, or 4 ([2]; 35 mg/day cohort (n=3)): no adverse events at grades 2, 3, or 4 were observed
dose limiting toxicity ([2]; 35 mg/day cohort (n=3)): no dose limiting toxicity was observed
dose limiting toxicity ([2]; 70 mg/day cohort (n=4)): no dose limiting toxicity was observed
grade 2 adverse events ([2]; 70 mg/day cohort (n=4)): One patient experienced grade 2 adverse events (diarrhea, fatigue, vomiting)
grade 3 adverse events ([2]; 70 mg/day cohort (n=4)): One patient experienced a grade 3 adverse event (anemia) that was unrelated to the administration of compound (I-g)
dose limiting toxicity ([2]; 140 mg/day cohort (n=8)): no dose limiting toxicity was observed
patients with grade 2 adverse events ([2]; 140 mg/day cohort (n=8)): 50 % of the patients
dose-limiting toxicity ([2]; 280 mg/day cohort (n=7)): one patient experienced dose-limiting toxicity and renal failure
patients with grade 2 or less adverse events ([2]; 280 mg/day cohort (n=7)): 5 patients
CYP3A4 induction (CYP3A4): induces CYP3A4
change in body weight [1]: no significant change in body weight was observed
Tumor volume, Day 0 [1, 7]: 147 ± 8{grave over ( )} mm^3
Tumor volume, Day 43 (Stage I) [1, 7]: 231 ± 26 mm^3
TGI (%) vs Abiraterone (Stage III) ([1]; Stage III, abiraterone-resistant tumors, Compound (I-g) 10 mg/kg once daily for 19 days): growth inhibition was observed
Tumor volume, Day 92 (Stage III) [1, 8]: 305 ± 23 mm^3
Tumor volume, Day 0 [1, 9]: 330 ± 15 mm^3
body weight and food consumption ([3]; 80 mg/kg female rat cohort): lost body weight and consumed less food
reversibility of findings (liver hypertrophy, femur physis thickening) ([3]; male high-dose rats, 14-day recovery): fully reversible
prostate weights ([3]; male rats): decreased prostate weights
tolerability ([3]; rats, oral once daily 28 days, males 20, 60, 120 mg/kg, females 20, 40, 120 mg/kg): well tolerated at all doses, with the exception of the 80 mg/kg female cohort
reduction of plasma PSA ([4]; vs vehicle): 93%
TGI ([4]; after 20 days, intact male NSG mice): 100%
AUC (clinical): 9120 ng·h/mL
AUC(0-t) (clinical): 3030 ng·h/mL
Cmax (clinical): 451 ng/mL
Tmax (clinical): 6 h
gastrointestinal alterations ([5]; dogs, 3, 10, 30 mg/kg oral once daily, 28 days): Gastrointestinal alterations were observed at all dose levels (including vehicle alone)
prostate weights ([5]; male dogs): decreased prostate weights
tumor response on CT scan (mCRPC tumor): RECIST response

SMILES: CNC(=O)c1ccc(N2C(=S)N(c3ccc(C#N)c(C(F)(F)F)c3)C(=O)C2(C)C)cc1F [enzalutamide, reference compound]
PSA reductions, published report (Jin 2017) [6]: modest PSA reductions were observed
TGI, published report (Jin 2017) [6]: no TGI
